Data set [1] has as its target T1, PtoMBD (Picrophilus oshimae, UniProt Q6L1T9, R218A/R220A).
T1 construct: gene PTO0478
In words: radio-TLC activity assay. Conditions: labelled compound; 1 μM GGPP, 5 mM MgCl2, sodium acetate pH 5.5, 60 °C. Format: biochemical.

In data set [2] the target is T2, PtoMBD (Picrophilus oshimae, UniProt Q6L1T9, D309T).
T2 construct: gene PTO0478
In words: radio-TLC activity assay. Format: biochemical. Conditions: labelled compound; 1 μM GGPP, 5 mM MgCl2, sodium acetate pH 5.5, 60 °C.

The target of data set [3] is T3, PtoMBD (Picrophilus oshimae, UniProt Q6L1T9, D309N).
T3 construct: gene PTO0478
T3 sequence (Q6L1T9 whole entry D309N): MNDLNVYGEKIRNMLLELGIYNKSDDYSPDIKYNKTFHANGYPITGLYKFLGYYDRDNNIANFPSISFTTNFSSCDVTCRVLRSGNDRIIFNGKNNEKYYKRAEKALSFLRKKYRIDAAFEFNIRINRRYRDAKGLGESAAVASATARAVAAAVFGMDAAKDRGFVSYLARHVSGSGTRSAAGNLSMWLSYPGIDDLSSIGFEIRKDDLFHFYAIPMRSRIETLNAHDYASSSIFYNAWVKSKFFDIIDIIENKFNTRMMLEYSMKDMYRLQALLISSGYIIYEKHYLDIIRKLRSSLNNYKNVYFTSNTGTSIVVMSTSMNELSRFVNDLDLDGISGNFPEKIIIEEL
In words: radio-TLC activity assay. Format: biochemical. Conditions: labelled compound; 1 μM GGPP, 5 mM MgCl2, sodium acetate pH 5.5, 60 °C.

The target of data set [4] is T4, PtoMBD (Picrophilus oshimae, UniProt Q6L1T9).
T4 construct: gene PTO0478
T4 sequence (Q6L1T9 1-349): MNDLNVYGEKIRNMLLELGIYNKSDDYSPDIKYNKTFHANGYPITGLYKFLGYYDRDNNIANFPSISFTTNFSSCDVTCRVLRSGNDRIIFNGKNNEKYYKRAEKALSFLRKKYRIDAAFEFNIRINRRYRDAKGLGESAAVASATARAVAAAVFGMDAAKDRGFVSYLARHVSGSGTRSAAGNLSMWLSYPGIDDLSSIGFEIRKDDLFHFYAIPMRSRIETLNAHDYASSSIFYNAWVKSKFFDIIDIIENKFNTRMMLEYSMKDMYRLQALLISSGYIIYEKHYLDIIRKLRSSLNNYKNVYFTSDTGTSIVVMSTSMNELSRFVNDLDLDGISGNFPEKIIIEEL
In words: X-ray crystal structure, […] Å. Conditions: endogenous E. coli ligand, identity assumed from density (oleic acid fitted), low occupancy, subunit A only; cavity overlapping ATP site of DMD. Format: binding.

Data set [5] deals with the molecule itself. In words: SEC; HiLoad 16/600 Superdex 200 prep grade, 20 mM sodium phosphate pH 7.4, 500 mM NaCl, 0.6 ml/min; calibrated with gel filtration markers.

T1 sequence (Q6L1T9 whole entry R218A/R220A): as the sequence (Q6L1T9 whole entry D309N) above, with R218A, R220A, N309D counted along it
T2 sequence (Q6L1T9 whole entry D309T): as the sequence (Q6L1T9 whole entry D309N) above, with N309T counted along it

`C[C@@](CCOP(=O)(O)O)(CC(=O)O)OP(=O)(O)O` [MVA3,5BP]: the MBD activity entry at PtoMBD [1] is “the R218A/R220A double mutant was as active as the WT”; on PtoMBD [2] it was “mutants D309T and D309N leads to the complete loss of MBD activity”; on PtoMBD [3], “mutants D309T and D309N leads to the complete loss of MBD activity”.
For the molecule `CCCCCCCC/C=C\CCCCCCCC(=O)O` [OLA], the “X-ray crystal structure, 2.2 Å” value at PtoMBD [4] is reported as “Oleic acid (OLA) fitted well in the electron density”.

B1: Picrophilus torridus mevalonate 3,5-bisphosphate decarboxylase (enzyme)
chain: T4 sequence (Q6L1T9 1-349)
notes: Mevalonate 3,5-bisphosphate decarboxylase of Picrophilus torridus, gene pto0478; calculated mass of the tagged protein 42,186 Da; also called PtoMBD; MBD; source: E. coli BL21(DE3), pET28a(+), purified (heat treatment, Ni-NTA, HP-Q for crystallization; heat treatment and Ni-NTA only for size-exclusion chromatography); not shown: polyhistidine, N-terminal, kept
B1: the “stoichiometry N” value in data set [5] amounted to 2.

(Values after paper PMC9254496, “Crystal structure of mevalonate 3,5-bisphosphate decarboxylase reveals insight into the evolution of decarboxylases in the mevalonate metabolic pathways” (The Journal of Biological Chemistry, 2022).)
